# pIC50: −log10 of the molar value.
# Columns and labels:
# [1] = biological target: T1, Serine/threonine-protein kinase ULK1 (Homo sapiens, UniProt O75385); assay: Inhibition of ATG13 binding to full-length ULK1 (unknown origin) expressed in HEK293T cells preincubated for 15 mins followed by human C-terminal FLAG-tagged ATG13 addition measured after 30 mins by Alphascreen assay; format: cell-based
# T1 sequence (O75385 whole entry): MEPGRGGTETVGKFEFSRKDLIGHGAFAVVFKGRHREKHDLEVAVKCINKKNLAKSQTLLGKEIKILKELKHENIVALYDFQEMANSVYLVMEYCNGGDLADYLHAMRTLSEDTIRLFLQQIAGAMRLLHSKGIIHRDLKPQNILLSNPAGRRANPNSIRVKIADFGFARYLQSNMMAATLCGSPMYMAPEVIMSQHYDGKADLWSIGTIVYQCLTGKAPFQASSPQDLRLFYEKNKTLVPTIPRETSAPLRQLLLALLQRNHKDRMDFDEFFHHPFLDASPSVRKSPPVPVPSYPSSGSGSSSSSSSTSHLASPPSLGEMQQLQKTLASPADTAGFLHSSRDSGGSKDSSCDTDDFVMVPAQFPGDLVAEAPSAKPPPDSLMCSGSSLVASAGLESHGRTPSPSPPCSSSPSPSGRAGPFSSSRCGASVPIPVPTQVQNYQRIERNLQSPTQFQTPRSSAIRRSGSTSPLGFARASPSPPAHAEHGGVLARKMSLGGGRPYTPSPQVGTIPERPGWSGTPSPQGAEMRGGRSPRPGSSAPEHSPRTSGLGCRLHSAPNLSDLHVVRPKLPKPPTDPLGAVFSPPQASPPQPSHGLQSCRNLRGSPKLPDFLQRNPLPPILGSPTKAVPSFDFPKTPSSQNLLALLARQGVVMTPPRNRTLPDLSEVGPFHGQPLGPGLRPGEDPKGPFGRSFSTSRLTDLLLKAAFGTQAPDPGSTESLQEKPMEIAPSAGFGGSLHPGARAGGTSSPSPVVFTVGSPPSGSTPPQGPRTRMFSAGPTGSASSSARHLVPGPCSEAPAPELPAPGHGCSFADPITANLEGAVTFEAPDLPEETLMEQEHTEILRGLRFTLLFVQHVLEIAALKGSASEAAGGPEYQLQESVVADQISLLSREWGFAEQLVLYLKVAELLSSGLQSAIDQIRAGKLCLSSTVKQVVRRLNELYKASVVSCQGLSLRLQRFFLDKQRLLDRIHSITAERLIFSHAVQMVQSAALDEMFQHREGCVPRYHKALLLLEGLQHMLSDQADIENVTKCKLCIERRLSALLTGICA
# Cytochrome P450 2C9 = Cytochrome P450 2C9 (Homo sapiens, UniProt P11712); assay: Inhibition of CYP2C9 (unknown origin) at 10 uM; format: ADME
# Cytochrome P450 2C9, sequence (P11712 whole entry): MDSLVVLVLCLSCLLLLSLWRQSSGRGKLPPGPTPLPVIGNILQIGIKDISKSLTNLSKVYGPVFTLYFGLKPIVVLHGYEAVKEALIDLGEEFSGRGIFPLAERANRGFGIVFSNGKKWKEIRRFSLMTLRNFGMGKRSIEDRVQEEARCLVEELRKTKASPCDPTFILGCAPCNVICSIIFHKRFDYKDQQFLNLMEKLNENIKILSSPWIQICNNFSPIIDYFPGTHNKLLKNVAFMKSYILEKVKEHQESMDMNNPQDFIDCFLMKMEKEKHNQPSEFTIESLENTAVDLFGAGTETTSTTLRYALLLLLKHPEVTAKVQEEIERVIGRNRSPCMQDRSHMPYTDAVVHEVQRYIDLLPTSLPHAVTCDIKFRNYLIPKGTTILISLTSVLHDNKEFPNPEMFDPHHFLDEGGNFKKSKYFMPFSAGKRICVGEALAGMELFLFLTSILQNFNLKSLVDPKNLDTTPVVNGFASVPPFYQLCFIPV
# Cytochrome P450 3A4 = Cytochrome P450 3A4 (Homo sapiens, UniProt P08684); assay: Inhibition of CYP3A4 (unknown origin) at 10 uM; format: ADME
# Cytochrome P450 3A4, sequence (P08684 whole entry): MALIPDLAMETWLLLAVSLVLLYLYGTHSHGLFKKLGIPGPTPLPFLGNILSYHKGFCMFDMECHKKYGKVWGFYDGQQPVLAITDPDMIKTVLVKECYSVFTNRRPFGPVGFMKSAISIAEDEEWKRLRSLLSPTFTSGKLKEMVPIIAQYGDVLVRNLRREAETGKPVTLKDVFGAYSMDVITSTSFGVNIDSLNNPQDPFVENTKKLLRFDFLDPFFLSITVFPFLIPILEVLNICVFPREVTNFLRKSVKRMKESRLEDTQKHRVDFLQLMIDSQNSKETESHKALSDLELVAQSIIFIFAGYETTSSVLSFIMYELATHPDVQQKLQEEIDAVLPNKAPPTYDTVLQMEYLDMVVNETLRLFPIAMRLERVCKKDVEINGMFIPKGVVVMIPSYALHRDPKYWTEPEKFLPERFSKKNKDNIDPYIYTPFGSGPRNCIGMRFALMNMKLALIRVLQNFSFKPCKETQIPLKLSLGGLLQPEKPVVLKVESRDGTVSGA
# [2] = Stability in human microsomes; format: ADME, Microsome
# [3] = Stability in mouse microsomes; format: ADME, Microsome
# [4] = Stability in rat microsomes; format: ADME, Microsome
# Cytochrome P450 1A2 = biological target: T2, Cytochrome P450 1A2 (Homo sapiens, UniProt P05177); assay: Inhibition of CYP1A2 (unknown origin) at 10 uM; format: ADME
# T2 sequence (P05177 whole entry): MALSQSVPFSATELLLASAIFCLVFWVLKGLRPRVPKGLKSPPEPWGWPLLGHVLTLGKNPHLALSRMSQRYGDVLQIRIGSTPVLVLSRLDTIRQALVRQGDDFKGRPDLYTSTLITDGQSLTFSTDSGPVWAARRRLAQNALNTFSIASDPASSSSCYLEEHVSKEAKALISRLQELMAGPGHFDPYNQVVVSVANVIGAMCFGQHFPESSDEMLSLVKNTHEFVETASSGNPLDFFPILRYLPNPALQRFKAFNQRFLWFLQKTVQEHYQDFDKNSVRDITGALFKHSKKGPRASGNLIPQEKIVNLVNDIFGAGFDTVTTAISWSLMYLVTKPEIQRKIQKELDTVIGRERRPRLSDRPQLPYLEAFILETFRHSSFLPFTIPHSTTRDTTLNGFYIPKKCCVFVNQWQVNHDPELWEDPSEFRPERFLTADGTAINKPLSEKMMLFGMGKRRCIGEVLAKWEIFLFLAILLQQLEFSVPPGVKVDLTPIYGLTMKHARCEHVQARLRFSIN
# Cytochrome P450 2D6 = Cytochrome P450 2D6 (Homo sapiens, UniProt P10635); assay: Inhibition of CYP2D6 (unknown origin) at 10 uM; format: ADME
# Cytochrome P450 2D6, sequence (P10635 whole entry): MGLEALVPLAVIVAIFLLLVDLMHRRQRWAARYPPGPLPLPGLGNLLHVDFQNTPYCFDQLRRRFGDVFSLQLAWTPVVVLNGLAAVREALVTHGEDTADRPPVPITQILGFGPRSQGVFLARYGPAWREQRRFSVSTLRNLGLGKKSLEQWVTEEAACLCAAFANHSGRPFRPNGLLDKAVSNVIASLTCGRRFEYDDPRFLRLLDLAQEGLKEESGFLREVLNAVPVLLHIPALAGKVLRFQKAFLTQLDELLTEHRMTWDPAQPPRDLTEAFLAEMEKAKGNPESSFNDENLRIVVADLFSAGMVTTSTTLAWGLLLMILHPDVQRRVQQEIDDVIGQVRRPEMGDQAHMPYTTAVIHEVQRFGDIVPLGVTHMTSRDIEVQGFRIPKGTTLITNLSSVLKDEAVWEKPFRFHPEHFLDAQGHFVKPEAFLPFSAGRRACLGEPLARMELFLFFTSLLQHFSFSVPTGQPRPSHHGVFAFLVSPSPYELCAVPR
# [5] = Half life in human microsomes; format: ADME, Microsome
structure (smiles),measurement,setting,value
Nc1n[nH]c2ccc(NC(=O)[C@H]3CC[C@H](N)CC3)cc12,pIC50,[1],4.86
COC(=O)c1cccc(Nc2n[nH]c3ccc(NC(=O)C4CCCC(N)C4)cc23)c1 (stereo unspecified),pIC50,[1],6.74
Nc1n[nH]c2ccc(NC(=O)C3CCNCC3)cc12,pIC50,[1],6.25
O=C(Nc1ccc2[nH]nc(Nc3cccc4ccccc34)c2c1)C1CCN1 (stereo unspecified),pIC50,[1],5.31
O=C(Nc1ccc2[nH]nc(Nc3cccc4ccccc34)c2c1)C1CCOCC1,pIC50,[1],5.74
COc1ccccc1Nc1n[nH]c2ccc(NC(=O)C3CCCC(N)C3)cc12 (stereo unspecified),inhibition (INH),Cytochrome P450 2C9,Not Active
same,inhibition (INH),Cytochrome P450 3A4,Not Active
same,Stability,[2],Stable
same,pIC50,[1],6.96
same,Stability,[3],Stable
same,Stability,[4],Stable
same,inhibition (INH),Cytochrome P450 1A2,Not Active
same,inhibition (INH),Cytochrome P450 2D6,Not Active
NC1CCCC(C(=O)Nc2ccc3[nH]nc(Nc4ccc(Br)cc4)c3c2)C1 (stereo unspecified),pIC50,[1],6.38
NC1CCCC(C(=O)Nc2ccc3[nH]nc(Nc4cccc(C(F)(F)F)c4)c3c2)C1 (stereo unspecified),pIC50,[1],6.54
NC1CCCC(C(=O)Nc2ccc3[nH]nc(Nc4ccccc4)c3c2)C1 (stereo unspecified),pIC50,[1],5.56
CN(C)C1CCCC(C(=O)Nc2ccc3[nH]nc(Nc4cccc5ccccc45)c3c2)C1 (stereo unspecified),pIC50,[1],5.37
N[C@H]1CCC[C@@H](C(=O)Nc2ccc3[nH]nc(Nc4cccc5ccccc45)c3c2)C1,half-life,[5],3.73 h
same,inhibition (INH),Cytochrome P450 2C9,Not Active
same,inhibition (INH),Cytochrome P450 3A4,Not Active
same,inhibition (INH),Cytochrome P450 1A2,Not Active
same,inhibition (INH),Cytochrome P450 2D6,Not Active
O=C(Nc1ccc2[nH]nc(Nc3cccc4ccccc34)c2c1)C1CCNCC1,inhibition (INH),Cytochrome P450 2C9,Not Active
same,inhibition (INH),Cytochrome P450 3A4,Not Active
same,Stability,[2],Stable
same,pIC50,[1],6.50
same,Stability,[3],Stable
same,Stability,[4],Stable
same,inhibition (INH),Cytochrome P450 1A2,Not Active
same,inhibition (INH),Cytochrome P450 2D6,Not Active
COc1ccc(CNc2n[nH]c3ccc(NC(=O)C4CCCC(N)C4)cc23)cc1 (stereo unspecified),pIC50,[1],6.32
Nc1cccc(C(=O)Nc2ccc3[nH]nc(N)c3c2)c1,pIC50,[1],4.74
NC1CCCC(C(=O)Nc2ccc3[nH]nc(Nc4cccc5cnccc45)c3c2)C1 (stereo unspecified),pIC50,[1],7.40
Nc1n[nH]c2ccc(NC(=O)C3CCCCN3)cc12 (racemic),pIC50,[1],6.08
NC1CCCC(C(=O)Nc2ccc3[nH]nc(NC(=O)c4ccccc4)c3c2)C1 (stereo unspecified),pIC50,[1],6.62
Nc1n[nH]c2ccc(NC(=O)C3CCCNC3)cc12 (racemic),pIC50,[1],6.17
Nc1n[nH]c2ccc(NC(=O)[C@H]3CC[C@@H](N)CC3)cc12,pIC50,[1],5.83
NC1CCCC(C(=O)Nc2ccc3[nH]nc(Nc4ccnc5ccccc45)c3c2)C1 (stereo unspecified),pIC50,[1],6.62
NCCCC(=O)Nc1ccc2[nH]nc(N)c2c1,pIC50,[1],< 4.48
NC1CCCC(C(=O)Nc2ccc3[nH]nc(Nc4cccc5ccccc45)c3c2)C1 (mixture of isomers),inhibition (INH),Cytochrome P450 2C9,Not Active
same,inhibition (INH),Cytochrome P450 3A4,Not Active
same,Stability,[2],Stable
same,Stability,[3],Stable
same,Stability,[4],Stable
same,inhibition (INH),Cytochrome P450 1A2,Not Active
same,inhibition (INH),Cytochrome P450 2D6,Not Active
